The METLIN SMRT retention time set (Domingo-Almenara et al. 2019)

Experiment: gradient 5% acetonitrile 3 min, to 50% in 2 min, to 85% in 15 min, held 3 min, 100 µL/min
Conditions: column: Zorbax Extend-C18 2.1 x 50 mm; eluents: water / acetonitrile, 0.1% formic acid
Outline: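 Retention times of pure standards were taken from adduct peaks that were selected by computer and manually inspected. Over 3 months, mixtures of ~100 molecules were run by HPLC–quadrupole time-of-flight mass spectrometry in positive and negative ionization mode. The Zorbax Extend-C18 column (2.1 × 50 mm, 1.8 μm) ran at 100 μL/min in water and acetonitrile, each containing 0.1% formic acid, with 40 μL dead volume and 900 μL dwell volume.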

Row | SMILES | RP-LC retention time
1 | Cc1ccc(-n2ccc(=O)c(-c3nc(-c4ccccc4Br)no3)n2)cc1 | 950 s
2 | COc1cc(NC(=O)C2CCN(c3nccnc3Sc3ccccc3)CC2)cc(OC)c1OC | 984 s
3 | Cc1nc2cc(N3CC(C(=O)NCc4ccc(F)c(Cl)c4)CC3=O)ccc2o1 (stereo unspecified) | 750 s
4 | CNC(=O)c1sc2nc(-c3ccccc3)c(NCCOC)n2c1C | 637 s
5 | CN1C(=O)c2cc(S(=O)(=O)Nc3cc(F)cc(F)c3)ccc2Oc2cccnc21 | 936 s
6 | Cc1sc(-c2nc(C(C)C)cs2)cc1S(=O)(=O)N1CCN(c2ccccc2)CC1 | 1420 s
7 | CC1=C(C(=O)Nc2cc(Cl)ccc2C(=O)NC2CCC(C)CC2)SCCO1 (stereo unspecified) | 1310 s
8 | Cc1ccc(C2NC(=O)c3ccccc3N2)s1 (stereo unspecified) | 705 s
9 | COc1ccc(C2C(C(=O)N3CCN(C)CC3)c3cc(OC)c(OC)cc3C(=O)N2C)cc1 (stereo unspecified) | 640 s
10 | COCCNC(=O)Nc1ccc(CCc2nc3ccccc3n2C)cc1 | 583 s
11 | CCOc1ccc(-c2nc(-c3ccc4oc(CC)nc4c3)no2)cc1 | 1280 s
12 | Cc1ccc(C)c(N2CCN(c3ccnc(SCC(=O)Nc4ccc(F)c(Cl)c4)n3)CC2)c1 | 997 s
13 | CCC(C(=O)NCCCOC)n1c2ccccc2c2cnn(C)c(=O)c21 (stereo unspecified) | 749 s
14 | O=C(CN1C(=O)COc2ccc(S(=O)(=O)N3CCOCC3)cc21)NCCc1c[nH]c2ccccc12 | 777 s
15 | CCc1c(C)nc2ncnn2c1N1CCOCC1 | 653 s
16 | Cc1cccc(-n2c(=O)c3sccc3n(Cc3nc(-c4ccccc4Cl)no3)c2=O)c1 | 1010 s
17 | O=C(c1c(F)cccc1Cl)N1CCCC(c2nnc(-c3ccccc3F)s2)C1 (stereo unspecified) | 920 s
18 | CCC(=O)N1CCc2cc(-c3ccc(C(=O)N4CCN(C(=O)c5ccco5)CC4)cc3)ccc21 | 764 s
19 | Cc1cc(C)c(C)c(S(=O)(=O)N(C)C)c1C | 939 s
20 | CCn1nccc1C(=O)N1CC(Oc2ccc(-c3nc(-c4ccccc4)no3)cc2)C1 | 1120 s
21 | COc1cccc(CC(=O)NCC(=O)Nc2nc3ccccc3n2C)c1 | 645 s
22 | O=C(N[C@H]1C[C@@H]2C[C@H]1N(C(=O)c1ccc(Cl)s1)C2)c1cccs1 | 850 s
23 | COc1ccc2[nH]cc(CCNC(=O)Cc3ccc(F)cc3)c2c1 | 790 s

Row | SMILES | RP-LC retention time
24 | COc1ccc(C)cc1S(=O)(=O)N1CCN(Cc2ccc3c(c2)OCO3)CC1 | 609 s
25 | Cc1ccccc1OCc1nc(-c2ccc3ncn(C(C)C)c3c2)no1 | 839 s
26 | CCCC(=O)Nc1ccc2c(c1)CN(C(=O)c1ccccc1)C(C(=O)N(C)C)C2 (stereo unspecified) | 671 s
27 | CCc1ccccc1NC(=O)C1CCN(S(=O)(=O)c2cc(C(=O)N3CCCC3)cs2)CC1 | 799 s
28 | Cc1c(C(=O)O)nnn1-c1ccc2c(c1)CCC2 | 759 s
29 | CN(C)c1nc2ncn3c(=O)n(CC(=O)NC4CCCCC4)nc3c2s1 | 663 s
30 | CN1CCC2(CC1)CN(C(=O)Nc1ccccc1)Cc1ccccc1O2 | 637 s
31 | CC(=O)N1CCC2(CC1)OC(=O)C(C)=C2C(=O)NCCCN1CCN(c2cc(C)ccc2C)CC1 | 639 s
32 | Cc1ccn2cc(C(=O)N3CCN(c4ccccc4)CC3)nc2c1 | 634 s
33 | CC1=NS(=O)(=O)N(Cc2ccccc2)C=C1C(=O)OCc1cc(C)ccc1C | 1200 s
34 | COc1cccc(CNC(=O)C2CCCN(c3nnc4ccc(Cl)cn34)C2)c1 (stereo unspecified) | 756 s
35 | CCCC(=O)N(C)CC1CCOCC1 | 630 s
36 | Cc1cc(C)n(-c2ccc(=O)n(CC(=O)NCc3ccc4c(c3)OCO4)n2)n1 | 668 s
37 | Cc1cc(Cl)ccc1OCc1nc(-c2ccc3c(c2)ncn3CCC(=O)N2CCCC2)no1 | 889 s
38 | CC(C)Cc1ccc([C@H](C)C(=O)O)cc1 | 1040 s
39 | COC(=O)c1cnn(-c2ccc(C(=O)N3CCc4ccccc43)cc2)c1N | 768 s
40 | O=C(NCc1ccc(-c2nc(-c3ccc(F)cc3)no2)s1)C1CCC1 | 975 s
41 | CC(C)c1nncn1C1CCN(S(=O)(=O)c2cccc(F)c2)CC1 | 707 s
42 | COc1cccc(NC(=O)Cn2c(N3CCOCC3)nc(C)cc2=O)c1 | 652 s
43 | O=C(NCCc1c[nH]c2ccccc12)C1CCCN(c2nn3c(=O)c4c(nc3s2)CCCC4)C1 (stereo unspecified) | 775 s
44 | COCCCNC(=O)c1ccc(-n2nc(Sc3ccc(Cl)cc3)ccc2=O)cc1 | 863 s
45 | COc1ccc2c(c1)-c1nc(NC(=O)c3ccc(C)cc3)sc1CC2 | 1170 s
46 | COc1ccc(-c2noc(Cn3ccnc3C)n2)cc1OC | 589 s

Row | SMILES | RP-LC retention time
47 | O=C(Nc1ccc(CN2CCCCC2)cc1)C1CCCN(c2ncnc3c2nc2n3CCCCC2)C1 (stereo unspecified) | 1050 s
48 | Cc1ccc(CN2CCC3(CC2)CC(O)(c2ccccn2)CCO3)o1 (stereo unspecified) | 595 s
49 | O=C(CCCN1C(=O)c2cccc3cccc(c23)C1=O)Nc1ccon1 | 723 s
50 | Cc1nn2c(S(=O)(=O)N3CCC(C)CC3)c(C)nc2s1 | 838 s
51 | Cc1nc(CC(=O)Nc2c(F)cccc2F)sc1C(=O)NC1CC1 | 660 s
52 | Cc1cc(C)n(-c2ccnc(NCCc3ccccn3)n2)n1 | 596 s
53 | CN1C(=O)C(CC(=O)N2CCCCC2)Sc2ncccc21 (stereo unspecified) | 658 s
54 | COc1cccc(-c2nnc(Cc3nc(-c4ccc(F)cc4)no3)o2)c1 | 1020 s
55 | CNC(=O)c1cc(-c2cccc(OC)c2)nc2ccccc12 | 800 s
56 | Cc1nc(-c2csc(S(=O)(=O)N3CCC(C(=O)Nc4ccc(Cl)cc4)CC3)c2)no1 | 986 s
57 | O=C(O)c1cn(-c2ccc3c(c2)CCC3)nn1 | 768 s
58 | O=C(C1COc2ccccc2O1)N1CCOc2ccc(N3CCCC3)cc2C1 (stereo unspecified) | 794 s
59 | Cc1cc(C2CCCN2C(=O)CCc2ccccc2)no1 (stereo unspecified) | 760 s
60 | CN1C(=O)CCCCC1C(=O)N1CCc2ccccc21 (stereo unspecified) | 721 s
61 | CN1CCc2ccccc2Cc2[nH]c3ccccc3c2CC1 | 738 s
62 | CCc1cccc(N2C=C(C(=O)N3CCOCC3)S(=O)(=O)c3ccc(F)cc32)c1 | 858 s
63 | CCCNC(=O)C1CCCN(c2ccc(SCC(=O)Nc3ccc(C)cc3)nn2)C1 (stereo unspecified) | 686 s
64 | CCCN1CCN(CCCNC(=O)CCc2nc(N3CCCCC3)c3c(CC)noc3n2)CC1 | 598 s
65 | Cc1cc(C)n(-c2nc(CC(=O)Nc3nc(-c4ccccc4)cs3)cs2)n1 | 1120 s
66 | COc1ccccc1C(=O)NC1CCN(c2cc(-c3cccs3)[nH]n2)C1 (stereo unspecified) | 717 s
67 | Cc1nn(CC(=O)NCCCN2CCCC2)c(=O)c2nc(-c3ccccc3)sc12 | 620 s
68 | Cc1ccc(-c2cc(C(N)=O)[nH]n2)cc1C | 690 s
69 | CCC(C)NC(=O)Cn1cccc(-c2nc(-c3ccc(OC)c(OC)c3)no2)c1=O (stereo unspecified) | 714 s

Row | SMILES | RP-LC retention time
70 | Cc1ccc(CNC(=O)C2CCN(S(=O)(=O)c3ccc4c(c3)NC(=O)CO4)CC2)o1 | 715 s
71 | COC(=O)c1c(C)[nH]c(C(=O)N2CCC(CC(=O)NCc3ccc(N(C)C)cc3)CC2)c1C | 595 s
72 | CCCNC(=O)c1cc(-c2ccc(Cl)cc2)cn1C | 957 s
73 | COc1ccc(CN(C)Cc2cc(=O)n3cc(Cl)ccc3n2)cc1 | 624 s
74 | CC(=O)Nc1cccc(C2=NN(C(C)=O)C(c3ccc4nccnc4c3)C2)c1 (stereo unspecified) | 617 s
75 | COC(=O)c1ncn2c1C(=O)N(c1ccccc1C)C(C)(C(=O)NCc1ccc(C)cc1)C2 (stereo unspecified) | 726 s
76 | CCS(=O)(=O)N1CC(CC#N)(n2cc(-c3ncnc4[nH]ccc34)cn2)C1 | 637 s
77 | Cc1cc(=O)n(CC(=O)Nc2ccc3c(c2)OCCO3)c(N2CCCCC2)n1 | 645 s
78 | CCC(=O)n1nc(C)c(S(=O)(=O)N2CCCCC2)c1C | 1040 s
79 | Cc1ccc(N2C(=O)C3N=NN(Cc4nc(-c5ccc(Cl)cc5)no4)C3C2=O)cc1 (stereo unspecified) | 1070 s
80 | COc1ccccc1CNC(=O)CSc1cc(N2CCN(c3ccccc3OC)CC2)ncn1 | 888 s
81 | Cc1cc(=O)n(CC(=O)N(C)C2CCCCC2)c(N2CCOCC2)n1 | 656 s
82 | COc1cccc(C(=O)NCCc2c[nH]c3ccc(F)cc23)c1 | 820 s
83 | Cc1ccc(CNC(=O)C2(C)CN(S(C)(=O)=O)CC(=O)N2c2ccc(C)cc2C)cc1 (stereo unspecified) | 864 s
84 | Cc1noc(C)c1-c1ccc(S(=O)(=O)Nc2ccc(S(N)(=O)=O)cc2)cc1 | 756 s
85 | CC(Oc1ccc(-c2cnc3ccccc3n2)cc1)C(=O)NCCN(C)C (stereo unspecified) | 634 s
86 | O=C(Nc1ccc2c(c1)OCCO2)N1CCC(N2CCN(Cc3ccc(F)cc3)C2=O)CC1 | 773 s
87 | CCC(=O)Nc1ccc(-n2cnc(C(=O)NCC3CCCO3)c2)nc1 (stereo unspecified) | 614 s
88 | CC(C)c1ccc(S(=O)(=O)Nc2cnc(N3CCNCC3)c(C(=O)NCC3CCCO3)c2)cc1 (stereo unspecified) | 643 s
89 | CC(=O)N(C1CCOCC1)C1CCN(C(=O)Nc2cc(F)c(F)c(F)c2)CC1 | 747 s
90 | O=C(NCc1ccccn1)C1CCc2sc(C(=O)N3CCCC3)cc2C1 (stereo unspecified) | 518 s
91 | c1ccc(-c2nc(-c3ccc4c(c3)nnn4CCN3CCCCC3)no2)nc1 | 602 s
